Patent publication US10660890B2, “Treatment of polycystic diseases with an HDAC6 inhibitor” (NATIONAL INSTITUTES OF HEALTH (NIH), U.S. DEPT. OF HEALTH …, priority 2013, dated 2020)

Experiments:
[1] = system: Male PKC-1 rats; experiment: Kidney cyst volume in male PCK-1 rats, oral gavage 12 weeks; format: in vivo, rat; conditions: oral gavage once daily for 12 weeks; histological analysis
Experimental: Male PKC-1 rats (4 weeks old, n=12) were treated by oral gavage once daily with the indicated dose of compounds for 12 weeks. The animals were sacrificed and kidneys were removed and fixed in formalin. The volume of cysts in the kidneys was measured by histological analysis (see FIG. 7). As a comparison, 6 rats were sacrificed at 4 weeks to measure the starting volume of renal cysts (control).

[2] = system: PCK rat cholangiocytes; experiment: Proliferation assay, PCK rat cholangiocytes (MTS / cell counting); format: cell-based; conditions: for reduction of proliferation of PCK cholangiocytes: day 3, MTS
Source text: For in vitro experiments, cholangiocytes were isolated from control rats, PCK rats (an animal model for […], LaRusso N F: Development and characterization of polarized primary cultures of rat intrahepatic bile duct epithelial cells, Lab Invest 1996, 74:303-313), healthy human beings and ADPKD patients (Masyuk et al. Biliary exosomes influence cholangiocyte regulatory mechanisms and proliferation through interaction with primary cilia, Am J Physiol Gastrointest Liver Physiol (2010) 299:G990-999; O'Hara et al. Cholangiocyte N-Ras protein mediates lipopolysaccharide-induced interleukin 6 secretion and proliferation, J Biol Chem (2011) 286:30352-30360; Banales et al. Up-regulation of microRNA 506 leads to decreased Cl(-)/HCO(3) (-) anion exchanger 2 expression in biliary epithelium of patients with primary biliary cirrhosis, Hepatology (2012) 56(2):687-97). Cholangiocytes were cultured in Collagen-I-coated flasks (BD Biocoat). All cell lines were incubated in NRC Media at 37° C., 5% CO2, 100% humidity. NRC Media contains Dulbecco's modified Eagle medium/F12 with the following additions: 0.01 mL/mL Minimum Essential Media (MEM) nonessential amino acids, 0.01 mL/mL lipid concentrate, 0.01 mL/mL MEM vitamin solution, 2 mmol/L L-glutamine, 0.05 mg/mL soybean trypsin inhibitor, 0.01 mL/mL insulin/transferring/selenium-S, 5% fetal bovine serum, […] bovine pituitary extract, 25 ng/mL epidermal growth factor, 393 ng/mL dexamethasone, […] 3,3-,5-triiodo-L-thyronine, 4.11 µg/mL forskolin, and 1% penicillin-streptomycin. […] The drug vehicle, DMSO, was suspended in NRC Media as a control. Cell proliferation was assessed with the CellTiter 96 AQueous One Solution (MTS; Promega) and/or counting cells using the Cellometer Auto T4 Cell Counter (Nexcelom Bioscience).

[3] = system: normal (NRC) cholangiocytes; experiment: Proliferation assay, normal rat cholangiocytes (NRC); format: cell-based; conditions: 2, 4, and 8 μmol/L (FIG. 4A)
Source text: (§1) For in vitro experiments, cholangiocytes were isolated from control rats, PCK rats (an animal model for ARPKD; Vroman B, LaRusso N F: Development and characterization of polarized primary cultures of rat intrahepatic bile duct epithelial cells, Lab Invest 1996, 74:303-313), healthy human beings and ADPKD patients (Masyuk et al. Biliary exosomes influence cholangiocyte regulatory mechanisms and proliferation through interaction with primary cilia, Am J Physiol Gastrointest Liver Physiol (2010) 299:G990-999; O'Hara et al. Cholangiocyte N-Ras protein mediates lipopolysaccharide-induced interleukin 6 secretion and proliferation, J Biol Chem (2011) 286:30352-30360; Banales et al. Up-regulation of microRNA 506 leads to decreased Cl(−)/HCO(3) (−) anion exchanger 2 expression in biliary epithelium of patients with primary biliary cirrhosis, Hepatology (2012) 56(2):687-97).
Cholangiocytes were cultured in Collagen-I-coated flasks (BD Biocoat). […]
Control and PCK rat cholangiocytes were cultured on Collagen-I-coated flasks (BD Biocoat) using NRC Media, detached with 0.25% Trypsin-EDTA (GIBCO), transferred to Collagen-I-coated 96-well plates (10 000 cells/well) and incubated at 37° C., 5% CO2, 100% humidity. […] Cell proliferation was assessed with the CellTiter 96 AQueous One Solution (MTS; Promega) and/or counting cells using the Cellometer Auto T4 Cell Counter (Nexcelom Bioscience).

[4] = system: β-catenin; experiment: Immunofluorescence of β-catenin in PCK cholangiocytes; format: cell-based, rat; conditions: nucleus and cytoplasm (FIG. 6B)
[5] = system: PCK rat; experiment: PCK rat model of polycystic liver disease, cystic area and fibrosis; format: in vivo
Source text: Bar=2500 μm. FIG. 4C, quantification analysis of cystic area expressed as percentage of total parenchyma area. *p<0.05.
The PCK rat model was used because the genetic mutation in this animal is orthologous to that found in human ARPKD. These animals express many of the characteristics of human […] (Lager D J, et al., Kidney Internat 59: 126-136, 2001; Harris, Curr Opin Nephrol Hypertens 11:309-314, 2002). The animals carrying this mutation present with both kidney and liver fibrocystic disease and these animals live long enough to facilitate long-term treatment protocols (Gattone V. H., et al., Nat Med (2003) 9: 1323-1326; Tones V. E., et al., Nat Med (2004) 10:363-364; Masyuk T. V., et al., Gastroenterology (2007) 132:1104-1116, 2007. Female animals show more severe liver disease than male animals.
The efficacy of the Compound A-1 was then tested in a PCK rat, an animal model of polycystic liver disease.

[6] = system: human ADPKD cholangiocytes; experiment: 3-day proliferation assay, human ADPKD cholangiocytes; format: cell-based; conditions: 3-day proliferation assay (FIG. 5A)
Source text: FIG. 5A depicts a human ADPKD 3-day proliferation assay showing decreased proliferation induced by both HDAC6 specific inhibitors, tubastatin-A and tubacin.
as §1
Cholangiocytes were cultured in Collagen-I-coated flasks (BD Biocoat). All cell lines were incubated in NRC Media at 37° C., 5% CO2, 100% humidity. […]

[7] = system: biliary cysts freshly isolated from PCK rats; experiment: 3D-culture cyst growth in collagen matrix; format: cell-based, rat; conditions: after four days
Experimental: Freshly isolated bile ducts from PCK rats were embedded in a rat-tail type I Collagen matrix (BD Biosciences) and grown in the presence or absence of 10 μmol/L Tubastatin A and 2 μmol/L Tubacin. Images of the growing cysts were taken every day over a period of 5 days and cyst size was measured with the software “Image J” (National Institute of Health). The circumferential areas for each cystic structure was compared to day 0 to calculate percentages of growth as previously described (see Muff et al. Development and characterization of a cholangiocyte cell line from the PCK rat, an animal model of Autosomal Recessive Polycystic Kidney Disease, Lab Invest 2006, 86:940-950; Masyuk et al. Octreotide inhibits hepatic cystogenesis in a rodent model of polycystic liver disease by reducing cholangiocyte adenosine 3′,5′-cyclic monophosphate, Gastroenterology (2007) 132:1104-1116 27; Lee et al. MicroRNA15a modulates expression of the cell-cycle regulator Cdc25A and affects hepatic cystogenesis in a rat model of polycystic kidney disease, J. Clin. Invest. (2008) 118:3714-3724 28. Gradilone et al. Activation of Trpv4 reduces the hyperproliferative phenotype of cystic cholangiocytes from an animal model of ARPKD, Gastroenterology (2010) 139:304-314 e302).

[8] = system: acetylated α-tubulin; experiment: Western blot, acetylated α-tubulin in PCK cholangiocytes; format: cell-based, rat
Experimental: (§2) PCK cholangiocytes were treated with 20 μM Tubastatin A or 2 μM Tubacin, lysed and used for Western blotting. […] Actin was used as a loading control. FIG. 3B depicts representative images of Western blots (n=3) showing HDAC6 inhibitors increase the amount of phospho- and acetyl-β-catenin compared to untreated cells using total-β-catenin as loading control. […] (*p<0.05).
Protein isolated from cultured control rat and PCK rat cholangiocytes were analyzed. Cells were scrapped, resuspended in Phosphate Buffered Saline (PBS) with Protease Inhibitors, Sodium Orthovanadate and Phenylmethanesulfonylfluoride (PMSF), sonicated and equal amounts of sample protein were diluted in Laemmli Sample Buffer (Biorad) and mercaptoethanol. […]
(§3) For a better understanding of the mechanisms that are responsible for the inhibition of PCK cholangiocyte proliferation and cyst growth in 3D culture, cultured PCK cholangiocytes were treated with tubastatin-A and tubacin and the amount of acetylated α-tubulin and β-catenin was determined by Western blotting.

[9] = system: β-catenin; experiment: Western blot, β-catenin (total, phospho-, acetyl-) in PCK cholangiocytes; format: cell-based, rat
Experimental: as §2
(§4) Protein isolated from cultured control rat and PCK rat cholangiocytes were analyzed. Cells were scrapped, resuspended in Phosphate Buffered Saline (PBS) with Protease Inhibitors, Sodium Orthovanadate and Phenylmethanesulfonylfluoride (PMSF), sonicated and equal amounts of sample protein were diluted in Laemmli Sample Buffer (Biorad) and mercaptoethanol. After SDS polyacrylamide gel electrophoresis, SDS-PAGE, proteins were transferred to nitrocellulose membranes, blocked, and then incubated with the following primary antibodies: HDAC6 (Santa Cruz Biotechnology, D-11, 1:500), acetylated-α-tubulin (Sigma Aldrich, 1:2000), β-catenin (Cell Signaling Technology, (D10A8) XP® Rabbit mAb; 1:1000), Phospho-β-Catenin (Ser33/37/Thr41) (Cell Signaling Technology, 1:1000), acetyl-β-catenin (Cell Signaling Technology, 1:1000), c-myc (Santa Cruz Biotechnology, 1:500), cyclin D1 (Santa Cruz Biotechnology, 1:500), and actin (Sigma Aldrich, 1:5000). The membranes were incubated overnight at 4° C., washed and incubated for 1 hour at room temperature with horseradish perodixase-conjugated (1:5000, Invitrogen) or IRdye 680 or 800 (1:15000, Odyssey) corresponding secondary antibody. The ECL system or Odyssey Licor Scanner was used for protein detection and the Gel-Pro Analyzer 6.0 software was used for densitometry analysis.
as §3

[10] = system: cyclin D1; experiment: Western blot, cyclin D1 in PCK cholangiocytes; format: cell-based, rat; conditions: 2 μM Tubacin
Experimental: as §2
as §4, with “The membranes were incubated overnight at 4° C., washed and incubated for 1 hour at room temperature with horseradish perodixase-conjugated (1:5000, Invitrogen) or IRdye 680 or 800 (1:15000, Odyssey) corresponding secondary antibody. The ECL system or Odyssey Licor Scanner was used for protein detection and the Gel-Pro Analyzer 6.0 software was used for densitometry analysis.” left out

[11] = system: c-myc; experiment: Western blot, c-myc in PCK cholangiocytes; format: cell-based, rat; conditions: 2 μM Tubacin
Experimental: as §2
as §4, with “The membranes were incubated overnight at 4° C., washed and incubated for 1 hour at room temperature with horseradish perodixase-conjugated (1:5000, Invitrogen) or IRdye 680 or 800 (1:15000, Odyssey) corresponding secondary antibody. The ECL system or Odyssey Licor Scanner was used for protein detection and the Gel-Pro Analyzer 6.0 software was used for densitometry analysis.” left out

[12] = system: histone-3; experiment: Western blot, histone-3 acetylation in PCK cholangiocytes; format: cell-based, rat; conditions: 2 μM Tubacin
Experimental: as §2
as §4, with “The membranes were incubated overnight at 4° C., washed and incubated for 1 hour at room temperature with horseradish perodixase-conjugated (1:5000, Invitrogen) or IRdye 680 or 800 (1:15000, Odyssey) corresponding secondary antibody. The ECL system or Odyssey Licor Scanner was used for protein detection and the Gel-Pro Analyzer 6.0 software was used for densitometry analysis.” left out

[13] = system: β-catenin mRNA; experiment: RT-PCR, β-catenin mRNA in PCK cholangiocytes; format: cell-based, rat; conditions: 2 uM tubacin; over time
Experimental: as §2
RNA was isolated from control and PCK rat cholangiocytes with TRIZOL reagent (Invitrogen). cDNA was obtained using First Srand cDNA Synthesis (Invitrogen) reagents and HDAC6 primers (forward primer: 5′-TCAGCGCAGTCTTATGGATG-3′ (SEQ ID NO.: 1); reverse primer: 5′-GCGGTGGATGGAGAAATAGA-3′, SEQ ID NO.: 2) were purchased from Integrated DNA Technologies. β-catenin mRNA expression was analyzed using the TaqMan Gene Expression Assay (Assay ID Rn00584431_g1) following the manufacturer directions. The samples were normalized to 18S rRNA.

[14] = 2 μM Tubacin, total-β-catenin as loading control

O=C(CCCCCCNC(=O)c1cnc(N(c2ccccc2)c2ccccc2Cl)nc1)NO [Compound B-1, 2-((2-chlorophenyl)(phenyl)amino)-N-(7-(hydroxyamino)-7-oxoheptyl)pyrimidine-5-carboxamide]
cyst formation in vivo (volume of cysts in the kidneys) [1]: decrease cyst formation

O=C(CCCCCCNC(=O)c1cnc(N(c2ccccc2)c2ccccc2)nc1)NO [Compound A-1, 2-(diphenylamino)-N-(7-(hydroxyamino)-7-oxoheptyl)pyrimidine-5-carboxamide]
PCK cells proliferation ([2]; 2, 4, and 8 μmol/L (FIG. 4A)): inhibited by the Compound A-1 in a dose dependent manner
proliferation of normal cells [3]: no significant effect
β-catenin expression in PCK cells (fluorescence quantification) [4]: reduced β-catenin expression
reduction of liver fibrosis ([5]; p<0.001): 30.5%
reduction of kidney cyst area ([5]; vs vehicle): 39.0%
reduction of liver cyst area ([5]; vs vehicle): 28.4%

O=C(NO)c1cnc(NC2(c3ccccc3)CCC(F)(F)CC2)nc1 [Compound C-2]
cyst formation in vivo (volume of cysts in the kidneys) [1]: decrease cyst formation

O=C(CCCCCCC(=O)Nc1ccc([C@H]2O[C@@H](CSc3nc(-c4ccccc4)c(-c4ccccc4)o3)C[C@@H](c3ccc(CO)cc3)O2)cc1)NO [tubacin]
reduction of PCK cholangiocyte proliferation ([2]; tubacin, 3 day time period (FIG. 2B)): 2.94 folds
decrease of proliferation of cultured human ADPKD cholangiocytes [6]: 16%
reduction of cyst growth compared to untreated cysts ([7]; 2 μM): 125%
increase of acetylated α-tubulin level compared to untreated cells ([8]; 2 μM Tubacin): 2.3 fold
decrease of β-catenin level ([9]; 2 μM Tubacin): 5 fold
amount of acetyl-β-catenin compared to untreated cells [9, 14]: increase
amount of phospho-β-catenin compared to untreated cells [9, 14]: increase
β-catenin protein expression over time ([9]; 2 uM tubacin): decrease in β-catenin protein expression over time
cyclin D1 level [10]: decreasing
c-myc level [11]: decreasing
acetylation levels of histone-3 [12]: remained unaffected
β-catenin mRNA [13]: remained stable

CN1CCc2c(c3ccccc3n2Cc2ccc(C(=O)NO)cc2)C1 [tubastatin A]
reduction of proliferation of PCK cholangiocytes ([2]; 5 μM): 2.5 folds
reduction of proliferation of PCK cholangiocytes ([2]; 10 μM): 3.5 folds
reduction of proliferation of PCK cholangiocytes ([2]; 20 μM): 4.15 folds
decrease of proliferation of cultured human ADPKD cholangiocytes [6]: 85%
reduction of cyst growth compared to untreated cysts ([7]; 10 μM): 131%
increase of acetylated α-tubulin level compared to untreated cells ([8]; 20 μM Tubastatin A): 13 fold
decrease of β-catenin level ([9]; 20 μM Tubastatin A): 2.2 fold
